The source made the active and inactive calls. The rule behind the calls is not given here.
How the values were obtained:
[1] = tested on: CD4+ve Th; assay: (§1) Inhibition of Treg cells differentiation in anti-CD3/CD28 stimulated C57BL/6 mouse mesenteric lymph node CD4+ve Th cells assessed as change in IL10 mRNA expression level cells at 0.1 to 3 uM incubated for 96 hrs in presence of recombinant human TGF-beta by qPCR analysis; type: functional, cell-based; settings: dose 0.1-3 µM
[2] = Microsomal stability in rat liver microsomes assessed as hepatic clearance; type: ADME, Microsome
[3] = target: Pyruvate kinase PKM (Mus musculus) (UniProt P52480); assay: Binding affinity to PKM2 in C57BL/6 mouse mesenteric lymph node CD4+ve Th cells assessed as increase in denaturation temperature at 3 uM incubated for 4 hrs by Solvent-induced protein precipitation analysis; type: tissue-based; settings: filed as activator
[4] = tested on: Mus musculus; assay: Anti-colitis activity against TNBS-induced ulcerative colitis BALB/c mouse model assessed as decrease in crypt necrosis in colon at 12.5 to 25 mg/kg, po for consecutive 7 days by H and E staining based microscopy; type: functional, organism-based; settings: dose 12.5-25 mg/kg, time 7.0 day
[5] = tested on: CD4+ve Th; assay: (§2) Inhibition of aerobic glycolysis in anti-CD3/CD28 stimulated C57BL/6 mouse mesenteric lymph node CD4+ve Th cells assessed as downregulation of HK2 protein expression level at 0.3 to 3 uM incubated for 96 hrs in presence of recombinant human TGF-beta, recombinant mouse IL-6 and recombinant mouse IL-23 by Western blot analysis; type: functional, cell-based; settings: dose 0.3-3 µM
[6] = tested on: CD4+ve Th; assay: as §1, with “Th17” for “Treg”, “downregulation of IL22” for “change in IL10”, “level” for “level cells”, “TGF-beta, recombinant mouse IL-6 and recombinant mouse IL-23” for “TGF-beta”; type: functional, cell-based; settings: dose 0.1-3 µM
[7] = Clearance in Sprague-Dawley rat at 8 mg/kg,iv and measured upto 24 hrs by LC-MS/MS analysis; type: ADME, organism-based; settings: in vivo
[8] = AUCt in Sprague-Dawley rat at 8 mg/kg,iv and measured upto 24 hrs by LC-MS/MS analysis; type: ADME, organism-based; set-up: time < 24 hrs, dose 8 mg/kg, route iv; settings: in vivo
[9] = target: T1, Pyruvate kinase PKM (Homo sapiens, UniProt P14618); assay: Covalent binding affinity to recombinant human PKM2 at Cys424 residue at 20 uM incubated for 120 mins by LC-MS/MS analysis; settings: filed as activator
Target sequence in this assay (P14618 2-531 limits assumed): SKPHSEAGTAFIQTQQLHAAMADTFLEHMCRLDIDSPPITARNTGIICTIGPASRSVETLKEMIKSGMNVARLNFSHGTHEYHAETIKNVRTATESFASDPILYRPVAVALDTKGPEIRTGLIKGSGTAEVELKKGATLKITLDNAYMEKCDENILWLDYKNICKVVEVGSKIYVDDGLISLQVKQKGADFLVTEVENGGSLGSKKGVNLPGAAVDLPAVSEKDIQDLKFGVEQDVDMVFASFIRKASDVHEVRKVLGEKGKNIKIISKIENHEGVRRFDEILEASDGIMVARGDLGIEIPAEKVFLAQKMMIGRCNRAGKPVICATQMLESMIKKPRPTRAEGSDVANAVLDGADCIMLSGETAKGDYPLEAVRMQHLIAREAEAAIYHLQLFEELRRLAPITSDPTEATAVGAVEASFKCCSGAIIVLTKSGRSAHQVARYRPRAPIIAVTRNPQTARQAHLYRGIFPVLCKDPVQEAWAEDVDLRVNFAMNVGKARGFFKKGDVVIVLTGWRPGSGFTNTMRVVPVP

[10] = tested on: Mus musculus; assay: Anti-colitis activity against DSS-induced ulcerative colitis C57BL/6 mouse model assessed as reduction in inflammatory cell infiltration in colon at 12.5 to 25 mg/kg, po for 10 days consecutively by H and E staining based microscopic analysis; type: functional, organism-based; settings: dose 12.5-25 mg/kg, time 10.0 day
[11] = tested on: CD4+ve Th; assay: as §1, with “Th17” for “Treg”, “downregulation of IL17f” for “change in IL10”, “level” for “level cells”, “TGF-beta, recombinant mouse IL-6 and recombinant mouse IL-23” for “TGF-beta”; type: functional, cell-based; settings: dose 0.1-3 µM
[12] = tested on: CD4+ve Th; assay: Effect on apoptosis in C57BL/6 mouse mesenteric lymph node CD4+ve Th cells assessed as apoptotis rate at 0.3 to 3 uM incubated for 96 hrs by Annexin-V/PI staining based flow cytometry; type: functional, cell-based; settings: dose 0.3-3 µM
[13] = target: T1, Pyruvate kinase PKM; assay: Activation of PKM2 (unknown origin) incubated for 30 mins
Target sequence in this assay (P14618 whole entry): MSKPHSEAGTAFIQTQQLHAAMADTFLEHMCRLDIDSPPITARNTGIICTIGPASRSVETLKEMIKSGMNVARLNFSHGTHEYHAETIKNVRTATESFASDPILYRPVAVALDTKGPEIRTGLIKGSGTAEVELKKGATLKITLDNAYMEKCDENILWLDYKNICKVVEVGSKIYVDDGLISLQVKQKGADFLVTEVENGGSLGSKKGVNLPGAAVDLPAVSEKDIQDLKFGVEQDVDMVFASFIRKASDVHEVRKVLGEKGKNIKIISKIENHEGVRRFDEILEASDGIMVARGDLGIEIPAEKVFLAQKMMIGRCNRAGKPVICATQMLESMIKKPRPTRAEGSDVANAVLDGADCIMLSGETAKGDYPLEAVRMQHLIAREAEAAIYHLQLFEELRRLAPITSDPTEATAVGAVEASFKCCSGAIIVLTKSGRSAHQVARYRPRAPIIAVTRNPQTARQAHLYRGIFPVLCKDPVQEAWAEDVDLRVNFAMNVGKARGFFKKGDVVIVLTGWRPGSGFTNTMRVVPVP

[14] = Toxicity in C57BL/6 mouse assessed as histological change in heart at 6.25 to 25 mg/kg, po for 10 days consecutively by H and E staining based microscopy; type: organism-based; settings: in vivo, 240 h, dose 6.25-25 mg/kg, time 10 day
[15] = Inhibition of Treg cells differentiation in anti-CD3/CD28 stimulated C57BL/6 mouse mesenteric lymph node CD4+ve Th cells assessed as decrease in proportion of Foxp3-positive Treg cells at 0.1 uM incubated for 96 hrs in presence of recombinant human TGF-beta by flow cytometry (Rvb= 21.1%); type: functional; settings: C57BL/6, CD4+ve Th
[16] = tested on: CD4+ve Th; assay: as §1, with “Th17” for “Treg”, “downregulation of IL21” for “change in IL10”, “level” for “level cells”, “TGF-beta, recombinant mouse IL-6 and recombinant mouse IL-23” for “TGF-beta”; type: functional, cell-based; settings: dose 0.1-3 µM
[17] = Microsomal stability in rat liver microsomes assessed as intrinsic clearance; type: ADME, Microsome; settings: read-out: CLH
[18] = tested on: Mus musculus; assay: Anti-colitis activity against DSS-induced ulcerative colitis C57BL/6 mouse model assessed as downregulation of RORC mRNA expression level in mesenteric lymph nodes at 12.5 to 25 mg/kg, po for 10 days consecutively by qPCR assay; type: functional, organism-based; settings: dose 12.5-25 mg/kg, time 10.0 day
[19] = target: Pyruvate kinase PKM (Mus musculus) (UniProt P52480); assay: Binding affinity to PKM2 in C57BL/6 mouse mesenteric lymph node CD4+ve Th cells assessed as increase in denaturation temperature at 3 uM incubated for 4 hrs by […] analysis; settings: filed as activator
[20] = tested on: Mus musculus; assay: Anti-colitis activity against DSS-induced ulcerative colitis C57BL/6 mouse model assessed as downregulation of Foxp3 mRNA expression level in spleen at 6.25 to 25 mg/kg, po for 10 days consecutively by qPCR assay; type: functional, organism-based; settings: dose 6.25-25 mg/kg, time 10.0 day
[21] = tested on: Mus musculus; assay: Anti-colitis activity against DSS-induced ulcerative colitis C57BL/6 mouse model assessed as downregulation of IL10 mRNA expression level in mesenteric lymph nodes at 6.25 to 25 mg/kg, po for 10 days consecutively by qPCR assay; type: functional, organism-based; settings: dose 6.25-25 mg/kg, time 10.0 day
[22] = Oral bioavailability in Sprague-Dawley rat at 75 mg/kg and measured upto 24 hrs by LC-MS/MS analysis; type: ADME, organism-based; settings: in vivo
[23] = Half life in Sprague-Dawley rat at 8 mg/kg,iv and measured upto 24 hrs by LC-MS/MS analysis; type: ADME, organism-based; settings: in vivo
[24] = tested on: CD4+ve Th; assay: as §2, with “Th17 cells differentiation” for “aerobic glycolysis”, “decrease in PKM2” for “downregulation of HK2 protein”, “in nucleus” for “level”, “0.1” for “0.3”; type: functional, cell-based; settings: dose 0.1-3 µM
[25] = tested on: CD4+ve Th; assay: as §2, with “Hk2 mRNA” for “HK2 protein”, “qPCR” for “Western blot”; type: functional, cell-based; settings: dose 0.3-3 µM
[26] = tested on: CD4+ve Th; assay: as §2, with “Th17 cells differentiation” for “aerobic glycolysis”, “decrease in total PKM2” for “downregulation of HK2 protein”, “expression” for “expression level”, “0.1” for “0.3”; type: functional, cell-based; settings: dose 0.1-3 µM
[27] = Protein binding in rat plasma assessed as bound fraction; type: ADME, cell-free; settings: read-out: PPB (converted)
[28] = tested on: CD4+ve Th; assay: as §2, with “decrease in ATP production” for “downregulation of HK2 protein expression level”, “colorimetric assay” for “Western blot analysis”; type: functional, cell-based; settings: dose 0.3-3 µM
[29] = tested on: CD4+ve Th; assay: as §2, with “PFK1” for “HK2”; type: functional, cell-based; settings: dose 0.3-3 µM
[30] = tested on: Mus musculus; assay: Anti-colitis activity against DSS-induced ulcerative colitis C57BL/6 mouse model assessed as downregulation of Foxp3 mRNA expression level in mesenteric lymph nodes at 6.25 to 25 mg/kg, po for 10 days consecutively by qPCR assay; type: functional, organism-based; settings: dose 6.25-25 mg/kg, time 10.0 day
[31] = tested on: CD4+ve Th; assay: as §2, with “reduction in glucose uptake” for “downregulation of HK2 protein expression”, “NBDG staining based immunofluorescence” for “Western blot”; type: functional, cell-based; settings: dose 0.3-3 µM
[32] = target: T1, Pyruvate kinase PKM; assay: Binding affinity to PKM2 (unknown origin) by SPR assay
Target sequence in this assay (P14618 whole entry): as above

Chain of Pyruvate kinase PKM (Mus musculus) (P52480 whole entry): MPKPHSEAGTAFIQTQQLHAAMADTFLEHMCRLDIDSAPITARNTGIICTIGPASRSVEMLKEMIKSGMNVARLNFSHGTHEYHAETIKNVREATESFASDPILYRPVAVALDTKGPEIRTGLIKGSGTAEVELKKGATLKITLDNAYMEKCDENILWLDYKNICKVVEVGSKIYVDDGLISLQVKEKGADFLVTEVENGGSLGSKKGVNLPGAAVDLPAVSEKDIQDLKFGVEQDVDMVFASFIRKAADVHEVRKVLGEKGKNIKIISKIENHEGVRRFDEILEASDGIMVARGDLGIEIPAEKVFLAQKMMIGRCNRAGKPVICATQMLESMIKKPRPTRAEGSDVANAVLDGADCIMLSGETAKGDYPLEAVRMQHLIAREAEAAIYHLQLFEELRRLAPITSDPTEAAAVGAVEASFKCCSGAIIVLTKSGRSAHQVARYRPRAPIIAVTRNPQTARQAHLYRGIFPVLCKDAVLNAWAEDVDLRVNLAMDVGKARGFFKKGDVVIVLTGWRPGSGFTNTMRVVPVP

In the case of C=C1C(=O)O[C@H]2[C@H]1CC[C@@]1(C)[C@@H](CC[C@@]3(C)O[C@@H]23)C1(F)F, the inhibition [1] is reported as “inactive”, the CLhep predicted [2] is reported as 43.1 mL/min/kg and the Activity [3] is reported as “Active”. For the same molecule, the Activity [4] was “Active”, the inhibition [5] was “Active” and the inhibition [6] was “Active”. For the same molecule, the clearance [7] was 103 mL/min/kg, the AUC(0-t) at 24 h [8] was 1230 ng·h/mL and the Activity [9] was “Active”. For the same molecule, the Activity [10] was “Active”, the inhibition [11] was “Active” and the Activity [12] was “inactive”. The EC50 [13] was 202 nM, the Activity [14] was “Non-Toxic” and the Foxp3+ cells at 0.1 µM [15] was 20.3%. For the same molecule, the inhibition [16] was “Active”, the microsomal CLint [17] was 110 µL/min/mg and the Activity [18] was “Active”. For the same molecule, the ΔTm [19] was 6 °C, the Activity [20] was “inactive” and the Activity [21] was “inactive”. For the same molecule, the bioavailability [22] was 2.8%, the half-life [23] was 2 h and the inhibition [24] was “Active”. For the same molecule, the inhibition [25] was “Active”, the inhibition [26] was “Active” and the fraction unbound [27] was 0.201. The inhibition [28] was “Active”, the inhibition [29] was “Active” and the Activity [30] was “inactive”. The inhibition [31] was “Active” and the Kd [32] was 18.4 nM.

Source: ChEMBL document CHEMBL5338738, “Discovery of Novel Sesquiterpene Lactone Derivatives as Potent PKM2 Activators for the Treatment of Ulcerative Colitis” (J Med Chem, 2023)
